From patent EP4549575A1 (priority 2023, dated 2025) come the findings set out here.

Test [1] deals with P. infestans. In kind it is cell-based. The following applies: 10 mg/l; Pea Broth; sporangia; OD620, 72 h; positive control.
The test system of another test is P. capsici. It counts as cell-based, Phytophthora capsici Leonian.
Test [2] relates to P. infestans. It counts as cell-based. The following applies: 10 mg/l; PAM agar; mycelium plug; 3-4 days; positive control.
In a further test the test system is P. viticola. It counts as in vivo, Plasmopara viticola (Berk. et Curt.) Berl. and De Toni. The following applies: grapevine (Vitis vinifera cv. Pinot noir) leaf discs; mean ± standard deviation vs untreated control; concentration not given.

With `C#CCOc1ccc(CCNC(=O)C(OCC#C)c2ccc(Cl)cc2)cc1OC` (stereo not shown) [Mandipropamid, mandipropamid], the “PGI (%) ± dev. std (Liquid medium)” value in the test on P. infestans [1] was 100.00 ± 0 (a) %. The “P. capsici (PIC - %)” value in the test on P. capsici is 100 ± 0 (a) %. In the test with P. infestans [2], the “PPI (%) ± dev. std (Solid medium)” value is listed as 100.00 ± 0 (a) %. Moreover, in the test on P. viticola, the “P. viticola (IPP - %)” value is recorded as 100 ± 0 (a) %.
